Where “and” joins values, the source holds several entries; their conditions need not be identical. Equal values may be shown once. Where a name gives a salt, the structure may show the parent alone. One block for each compound: values may come before it.
Columns and labels:
[1] = Dissolution studies of Lasofoxifene in organic solvents and surfactants; type: physicochemical; details: for Dissolution of Lasofoxifene in various organic solvents and surfactants, 2 mg/ml: Lasofoxifene 2 mg/ml in the labelled solvent/surfactant; for Dissolution of Lasofoxifene in various organic solvents and surfactants, 2 mg/ml / Dissolution of Lasofoxifene in various organic solvents and surfactants, 3 mg/ml / Dissolution of Lasofoxifene in various organic solvents and surfactants, 6 mg/ml: visual examination; for Dissolution of Lasofoxifene in various organic solvents and surfactants, 3 mg/ml: Lasofoxifene 3 mg/ml in the labelled solvent/surfactant; for Dissolution of Lasofoxifene in various organic solvents and surfactants, 6 mg/ml: Lasofoxifene 6 mg/ml in the labelled solvent/surfactant
Method: The solubility of Lasofoxifene was investigated by screening various organic solvents and surfactants in increasing concentrations. The term “formulation” may refer to a pharmaceutical composition comprising […] pharmaceutically acceptable excipients.
First, 1 mg of Lasofoxifene was weighed into Eppendorf vessels and 500 μl of organic solvents and surfactants as listed in Table 20 were added. In cases of insufficient dissolution of the API, samples were treated with ultrasound for 30 min and, if necessary, heated to 50° C. while shaking (300 rpm). Afterwards, samples were examined visually regarding drug dissolution. In case of entire dissolution, the experiment was repeated with increasing drug concentrations until maximum dissolution was achieved. In addition, further organic solvents and surfactants were tested.

[2] = as above; type: physicochemical; details: Lasofoxifene 1 mg/ml in the labelled solvent/surfactant; visual examination
[3] = test system: vaginal epithelium; assay: Ovariectomized rat dosing frequency study: mucification of vaginal epithelium (PAS staining, 0-4 scale); type: in vivo; details: individual animals
From the text: (§1) A total of 96 young, about 6-8 weeks old, female Sprague Dawley rats were used in this pilot study. The rats were randomized by body weight into six (6) per group and sixteen (16) groups. Ninety (N=90) of the animals were ovariectomized (OVX), and six (N=6) of the animals have a sham OVX surgery. One group of six (6) animals were terminated along with the sham-operated group at Day-14 post-OVX surgery. Three groups of eighteen (18) animals were respectively terminated along with the vehicle group at Day-14, Day-17 or Day-21 post-OVX surgery. The dosing regimens, starting on Day 14 post OVX, by inserting a capsule containing the desired Lasofoxifene formulations (e.g., Test Articles F-1-L, F-1-H, F-2-L, F-2-H) into vaginal tract under brief general anesthesia.
(§2) Rats were assigned to treatment groups by randomization in BioBook system (IDBS) based on the body weights. Grouping according to the below table 1. Each rat was dosed with ready to use solution, […] into vaginal tract with a syringe.
(§3) Annotation: Groups 1 (N=6): Day-0 vehicle; dose once at 100 μL on Day-0 at 14-day post OVX, and terminate at Day-14 post OVX. Groups 2 (N=6): Day-3 vehicle; dose once at 100 μL on Day-0 at 14-day post OVX, and terminate at Day-17 post OVX. Groups 3 (N=6): Day-7 vehicle; dose once at 100 μL on Day-0 at 14-day post OVX, and terminate at Day-21 post OVX. Groups 4 (N=6): Day-0 sham: terminate at Day-14 post sham-operation. Groups 5 (N=6): F-1-L; dose once at 0.3 μg/kg (100 μL) on Day-0 at 14-day post OVX, and terminated at Day-3 after dosing. Groups 6 (N=6): F-1-H; dose once at 3.0 μg/kg (100 μL) on Day-0 at 14-day post OVX, and terminated at Day-3 after dosing. Groups 7 (N=6): F-2-L; dose once at 0.3 μg/kg (100 μL) on Day-0 at 14-day post OVX, and terminated at Day-3 after dosing. Groups 8 (N=6): F-2-H; dose once at 3.0 μg/kg (100 μL) on Day-0 at 14-day post OVX, and terminated at Day-3 after dosing. Groups 9 (N=6): F-1-L; dose once at 0.3 μg/kg (100 μL) on Day-0 at 14-day post OVX, and terminated at Day-7 after dosing. Groups 10 (N=6): F-1-H; dose once at 3.0 μg/kg (100 μL) on Day-0 at 14-day post OVX, and terminated at Day-7 after dosing. Groups 11 (N=6): F-2-L; dose once at 0.3 μg/kg (100 μL) on Day-0 at 14-day post OVX, and terminated at Day-7 after dosing. Groups 12 (N=6): F-2-H; dose once at 3.0 μg/kg (100 μL) on Day-0 at 14-day post OVX, and terminated at Day-7 after dosing. Groups 13 (N=6): F-1-L; dose twice at respectively 0.3 μg/kg (100 μL) on Day-0 and Day-4 at 14-day and 18-day post OVX, and terminated at Day-7 after dosing. Groups 14 (N=6): F-1-H; dose twice at respectively 3.0 μg/kg (100 μL) on Day-0 and Day-4 at 14-day and 18-day post OVX, and terminated at Day-7 after dosing. Groups 15 (N=6): F-2-L; dose twice at respectively 0.3 μg/kg (100 μL) on Day-0 and Day-4 at 14-day and 18-day post OVX, and terminated at Day-7 after dosing. Groups 16 (N=6): F-2-H; dose twice at respectively 3.0 μg/kg (100 μL) on Day-0 and Day-4 at 14-day and 18-day post OVX, and terminated at Day-7 after dosing. Body Weight
(§4) All animals were humanely sacrificed by CO2 and the vaginal and uterine wet-weight were collected from each, and about 0.5 mL blood were collected for analysis of serum cholesterol level. Each uterus and vagina was weighed separately and was placed in 10% NBF for at least 48 hours before being sent to Histology Laboratory for tissue processing. The paraffin blocks of these tissues were sectioned, about 4-8 μm in thickness, and one section were stained with H & E for general microscopic evaluation, and one section were stained with PAS for assessment of mucification of the epithelium.
The PAS stained sections were used to evaluate the amount of mucification by visual approximation on a 0-4 scale, with the 4 stands for the highest amount.
Data were analyzed using GraphPad Prism software (GraphPad Software, Inc., La Jolla, Calif., USA) and are expressed as the mean±SD. […]

[4] = test system: vaginal epithelium; assay: Ovariectomized rat dosing frequency study: thickness of the vaginal epithelium (H & E histomorphometry); type: in vivo; parameters: unit not given here; details: individual animals
From the text: as §1, §2, §3, §4
The H & E stained sections were used to measure the height of the vaginal epithelium at minimum of ten (10) sites per slide. Photomicrographs of the slides were included in the appendix or burned on a DVD disc to accompany the final report. […]

[5] = test system: Uterine; assay: Ovariectomized rat dosing frequency study: mucification, Uterine (0-4 scale); type: in vivo; details: individual animals
[6] = test system: Uterine; assay: Ovariectomized rat dosing frequency study: epithelium thickness, Uterine; type: in vivo; parameters: unit not given here; details: individual animals

SMILES: C[S+](C)[O-] [DMSO, dimethyl sulfoxide]
- Dissolution of Lasofoxifene in various organic solvents and surfactants, 2 mg/ml [1]: dissolved
- Dissolution of Lasofoxifene in various organic solvents and surfactants, 3 mg/ml [1]: dissolved
- Dissolution of Lasofoxifene in various organic solvents and surfactants, 6 mg/ml [1]: dissolved
- Dissolution of Lasofoxifene in various organic solvents and surfactants, 1 mg/ml [2]: dissolved

SMILES: CCCCCCCC/C=C\CCCCCCCC(=O)OCC [Ethyloleate]
- Dissolution of Lasofoxifene in various organic solvents and surfactants, 1 mg/ml [2]: not dissolved

SMILES: OCC(O)CO [Glycerol 85%, Glycerol]
- Dissolution of Lasofoxifene in various organic solvents and surfactants, 2 mg/ml [1]: partially
- Dissolution of Lasofoxifene in various organic solvents and surfactants, 3 mg/ml [1]: not dissolved
- Dissolution of Lasofoxifene in various organic solvents and surfactants, 1 mg/ml [2]: dissolved

SMILES: OCC(O)CO [Glycerol 99%, Glycerol]
- Dissolution of Lasofoxifene in various organic solvents and surfactants, 2 mg/ml [1]: partially
- Dissolution of Lasofoxifene in various organic solvents and surfactants, 3 mg/ml [1]: not dissolved
- Dissolution of Lasofoxifene in various organic solvents and surfactants, 1 mg/ml [2]: dissolved*

SMILES: CO[C@H]1CO[C@H]2[C@@H]1OC[C@H]2OC [Isosorbide dimethyl ether (DMI), Isosorbide dimethyl ether]
- Dissolution of Lasofoxifene in various organic solvents and surfactants, 2 mg/ml [1]: partially
- Dissolution of Lasofoxifene in various organic solvents and surfactants, 3 mg/ml [1]: not dissolved
- Dissolution of Lasofoxifene in various organic solvents and surfactants, 1 mg/ml [2]: dissolved*

SMILES: Oc1ccc2c(c1)CC[C@H](c1ccccc1)[C@@H]2c1ccc(OCCN2CCCC2)cc1 [Lasofoxifene]
- Mucification of vaginal epithelium, Vagina ([3]; group G3): 2 (4×) and 3 (2×)
- Mucification of vaginal epithelium, Vagina ([3]; group G5): 3 and 1 (3×) and 2 (2×)
- Mucification of vaginal epithelium, Vagina ([3]; group G6): 2 (2×) and 1 (4×)
- Mucification of vaginal epithelium, Vagina ([3]; group G7): 1 (2×) and 2 (4×)
- Mucification of vaginal epithelium, Vagina ([3]; group G8): 2 (2×) and 1 (3×) and 3
- Mucification of vaginal epithelium, Vagina ([3]; group G9): 3 (3×) and 1 and 2 (2×)
- Mucification of vaginal epithelium, Vagina ([3]; group G10): 3 (3×) and 2 (3×)
- Mucification of vaginal epithelium, Vagina ([3]; group G11): 3 (2×) and 4 and 1 and 2 (2×)
- Mucification of vaginal epithelium, Vagina ([3]; group G12): 3 (4×) and 2 and 4
- Mucification of vaginal epithelium, Vagina ([3]; group G13): 4 (4×) and 3 (2×)
- Mucification of vaginal epithelium, Vagina ([3]; group G14): 4 (3×) and 3 (3×)
- Mucification of vaginal epithelium, Vagina ([3]; group G15): 2 (2×) and 3 (4×)
- Mucification of vaginal epithelium, Vagina ([3]; group G16): 4 and 3 (4×) and 2
- Thickness of the vaginal epithelium, Vagina ([4]; group G3): 23 (2×) and 22 and 21 and 15 and 18
- Thickness of the vaginal epithelium, Vagina ([4]; group G5): 26 and 30 and 32 (2×) and 27 and 16
- Thickness of the vaginal epithelium, Vagina ([4]; group G6): 29 (2×) and 24 and 41 and 27 and 22
- Thickness of the vaginal epithelium, Vagina ([4]; group G7): 27 and 18 and 21 and 20 (2×) and 17
- Thickness of the vaginal epithelium, Vagina ([4]; group G8): 32 (2×) and 24 and 28 and 14 and 26
- Thickness of the vaginal epithelium, Vagina ([4]; group G9): 21 and 15 (2×) and 25 and 17 and 18
- Thickness of the vaginal epithelium, Vagina ([4]; group G10): 27 and 19 and 17 (2×) and 14 and 22
- Thickness of the vaginal epithelium, Vagina ([4]; group G11): 17 (2×) and 20 and 15 and 25 and 19
- Thickness of the vaginal epithelium, Vagina ([4]; group G12): 16 and 21 and 17 and 18 and 20 and 19
- Thickness of the vaginal epithelium, Vagina ([4]; group G13): 20 (3×) and 18 and 23 and 19
- Thickness of the vaginal epithelium, Vagina ([4]; group G14): 15 and 23 and 13 and 16 and 18 and 25
- Thickness of the vaginal epithelium, Vagina ([4]; group G15): 21 and 22 and 23 (3×) and 25
- Thickness of the vaginal epithelium, Vagina ([4]; group G16): 22 and 28 and 20 and 19 (2×) and 16
- Mucification, Uterine ([5]; group G3): 0
- Mucification, Uterine ([5]; group G5): 0
- Mucification, Uterine ([5]; group G6): 0
- Mucification, Uterine ([5]; group G7): 0
- Mucification, Uterine ([5]; group G8): 0
- Mucification, Uterine ([5]; group G9): 0
- Mucification, Uterine ([5]; group G10): 0
- Mucification, Uterine ([5]; group G11): 0
- Mucification, Uterine ([5]; group G12): 0
- Mucification, Uterine ([5]; group G13): 0
- Mucification, Uterine ([5]; group G14): 0
- Mucification, Uterine ([5]; group G15): 0
- Mucification, Uterine ([5]; group G16): 0
- Thickness, Uterine ([6]; group G3): 6 and 7 (3×) and 8 (2×)
- Thickness, Uterine ([6]; group G5): 9 (4×) and 8 (2×)
- Thickness, Uterine ([6]; group G6): 8 (3×) and 9 and 6 (2×)
- Thickness, Uterine ([6]; group G7): 8 (3×) and 7 (2×) and 9
- Thickness, Uterine ([6]; group G8): 6 and 8 (2×) and 10 (2×) and 7
- Thickness, Uterine ([6]; group G9): 7 (2×) and 9 (2×) and 6 (2×)
- Thickness, Uterine ([6]; group G10): 9 (3×) and 8 (2×) and 11
- Thickness, Uterine ([6]; group G11): 5 and 7 (4×) and 9
- Thickness, Uterine ([6]; group G12): 9 and 7 (3×) and 6 and 8
- Thickness, Uterine ([6]; group G13): 6 (2×) and 7 and 8 (2×) and 9
- Thickness, Uterine ([6]; group G14): 8 (3×) and 6 and 7 and 9
- Thickness, Uterine ([6]; group G15): 9 and 8 (5×)
- Thickness, Uterine ([6]; group G16): 6 (2×) and 7 (3×) and 8

SMILES: CC(O)CO (stereo not shown) [Propylene glycol (PG), Propylene glycol]
- Dissolution of Lasofoxifene in various organic solvents and surfactants, 2 mg/ml [1]: dissolved*
- Dissolution of Lasofoxifene in various organic solvents and surfactants, 3 mg/ml [1]: partially
- Dissolution of Lasofoxifene in various organic solvents and surfactants, 6 mg/ml [1]: not dissolved
- Dissolution of Lasofoxifene in various organic solvents and surfactants, 1 mg/ml [2]: dissolved

SMILES: CCOCCOCCO [Transcutol (TC), Diethylene glycol monoethyl ether]
- Dissolution of Lasofoxifene in various organic solvents and surfactants, 2 mg/ml [1]: dissolved
- Dissolution of Lasofoxifene in various organic solvents and surfactants, 3 mg/ml [1]: dissolved
- Dissolution of Lasofoxifene in various organic solvents and surfactants, 1 mg/ml [2]: dissolved

SMILES: CC(=O)OCC(COC(C)=O)OC(C)=O [Triacetin (TAC), Triacetin]
- Dissolution of Lasofoxifene in various organic solvents and surfactants, 2 mg/ml [1]: not dissolved

More lines, now with the values ahead:

- Dissolution of Lasofoxifene in various organic solvents and surfactants, 1 mg/ml [2]: not dissolved
SMILES: CCCCOC(=O)CC(CC(=O)OCCCC)(OC(C)=O)C(=O)OCCCC [Tributyl acetyl citrate (TBAC), Tributyl acetyl citrate]

- Dissolution of Lasofoxifene in more lipophilic excipients ([1]; in the labelled excipient): could not be dissolved
- Dissolution of Lasofoxifene in various organic solvents and surfactants, 1 mg/ml [2]: not dissolved
SMILES: CCCCOC(=O)CC(O)(CC(=O)OCCCC)C(=O)OCCCC [Tributyl citrate (TBC), Tributyl citrate]

- Dissolution of Lasofoxifene in various organic solvents and surfactants, 1 mg/ml [2]: not dissolved
SMILES: CCOC(=O)CC(CC(=O)OCC)(OC(C)=O)C(=O)OCC [Triethyl acetyl citrate (TEAC), Triethyl acetyl citrate]

- Dissolution of Lasofoxifene in various organic solvents and surfactants, 1 mg/ml [2]: not dissolved
SMILES: CCOC(=O)CC(O)(CC(=O)OCC)C(=O)OCC [Triethyl citrate (TEC), Triethyl citrate]

From patent US10857127B2, “Vaginal delivery systems containing selective estrogen receptor modulator (SERM) and uses thereof” (Azure Biotech, Inc., priority 2016, dated 2020)
